Laboratory results published in US12378235B2, “HCK inhibitors for the treatment of fibrosis and cancer” (Icahn School of Medicine At Mount Sinai, priority 2019, dated 2025).
Several values for one entry are separate records, joined by “and”; a condition that tells them apart may be missing. Equal entries are not always repeated. Where two headings read alike, the source gives them in different places.

What was measured:
HCK = biological target: T1, HCK (Homo sapiens, UniProt P08631); experiment: P32 radioactive kinase assay (Reaction Biology Corp), HCK activity inhibition; assay type: biochemical; conditions: for remaining activity at 1 µM: 1 μM compound, read-out: % Enzyme Activity (relative to DMSO controls) HCK (1 μM); for remaining activity at 50 µM: 50 μM compound, read-out: % Enzyme Activity (relative to DMSO controls) HCK (50 μM)
T1 construct: purchased Reaction Biology Corp
Method: HCK activity inhibition efficiency for the inhibitors. Inhibiting efficiency was performed in Reaction Biology with Corp P32 radioactive kinase assay, comparing the compounds of the invention with dasatinib for HCK, Bcr-Abl and other binding kinases identified in reference. Most of the HCK inhibitors of the invention tested have IC50 of HCK activity at about 50 uM concentrations.
HCK inhibiting efficiency was performed in Reaction Biology with Corp P32 radioactive kinase assay. Briefly, HCK kinase was delivered into the substrate solution and gently mixed, then compounds in DMSO were added into the kinase reaction mixture by Acoustic technology (Echo550; Nano liter range), and incubated for 20 minutes at room temperature. 33P-ATP was delivered into the reaction mixture to initiate the reaction. The kinase reaction was incubated for 2 hours at room temperature. Reactions were spotted onto P81 ion exchange paper, and detected kinase activity was measured by filter-binding method.

HK2 cells [1] = experiment: Anti-fibrosis effect: mRNA levels of fibrosis markers by RT-PCR in HK2 cells; assay type: cell-based; conditions: for mRNA levels of fibrosis markers: FIG. 3A and FIG. 3B
Method: Anti-fibrosis effect was investigated by fibrosis markers in mRNA level. […] The mRNA levels of Veminten, FN1 and A-Sma were not affected. HK2 cells were treated with HCK inhibitor Examples 4, 7, and 8 at 10 uM and 20 uM overnight and then stimulated with TGF-beta for 8 hours. mRNA-levels of profibrotic markers by RT-PCR (normalized to GAPDH) from mRNA isolated in the cells. Values are mean±SEM; *P=0.05, […], ***P<0.001 between means; one-way ANOVA with Bonferroni multiple comparison test (FIG. 2B). Finally, it was shown that Examples 7, 8, and 13 reduced the mRNA levels of fibrosis markers (FIG. 3A and FIG. 3B).

HK2 cells [2] = experiment: CellTiter 96 AQueous One Solution Cell Proliferation Assay (MTS) in HK2 cells; assay type: cell-based; conditions: Homo sapiens, HK-2, 24 hours treatment, MTS (FIG. 1), read-out: concentration that inhibits 50% of HK2 cell proliferation
Excerpt: HCK inhibitors reduce cell proliferation. Excessive HCK activation is associated with several types of leukemia and enhances cell proliferation and survival by physical association with oncogenic fusion proteins, and with functional interactions with receptor tyrosine kinases. Elevated HCK activity is also observed in many solid malignancies, including breast and colon cancer, and correlates with decreased patient survival rates. HCK enhances the secretion of growth factors and pro-inflammatory cytokines from myeloid cells and promotes macrophage polarization towards a wound healing and tumor-promoting alternatively activated phenotype. Inhibition of HCK activity, therefore, should inhibit cancerous cell's proliferation. Compounds of the invention were measured for inhibition of cell proliferation with CellTiter 96® AQueous One Solution Cell Proliferation Assay (MTS) from Promega in HK2 cells. The compounds of the invention were diluted to serial concentrations. HK2 cells were cultured in 10% FBS and 1% P/S. The cells were treated with the compounds of the invention for 24 hours and then 20 μl/well of CellTiter 96® AQueous One Solution Reagent was added. Values were normalized to the percentages relative to DMSO controls. Values shown are mean±SEM.

SMAD = SMAD binding activity in HK2 cells; assay type: cell-based
Excerpt: Inhibition of HCK affects SMAD binding activity. Transforming growth factor-β(TGF-β) is the primary factor that drives fibrosis in most, if not all, forms of chronic kidney disease (CKD). TGF-β1 can induce renal fibrosis via activation of both canonical (Smad-based) and non-canonical (non-Smad-based) signalling pathways, which result in activation of myofibroblasts, excessive production of extracellular matrix (ECM) and inhibition of ECM degradation. The role of Smad proteins in the regulation of fibrosis is complex, with competing profibrotic and antifibrotic actions (including in the regulation of mesenchymal transitioning), and with complex interplay between TGF-β/Smads and other signalling pathways.

LDH cytotoxicity assay = assay type: cell-based; conditions: different dosages, up to very high dose of 50 uM
Method: LDH cytotoxicity assay for HCK inhibitors cytotoxicity. Toxicity refers to how poisonous or harmful a substance can be. In the context of pharmacology, drug toxicity occurs when a person has accumulated too much of a drug in his bloodstream, leading to adverse effects on the body. Drug toxicity may occur when the dose given is too high or the liver or kidneys are unable to remove the drug from the bloodstream, allowing it to accumulate in the body. Drug toxicity was measured with LDH cytotoxicity assay with different dosages of compounds of the invention.

[3] = HK2 cells treated with 5, 10, 20 uM (FIG. 2A)
[4] = second of two replicate columns

T1 sequence (P08631 whole entry): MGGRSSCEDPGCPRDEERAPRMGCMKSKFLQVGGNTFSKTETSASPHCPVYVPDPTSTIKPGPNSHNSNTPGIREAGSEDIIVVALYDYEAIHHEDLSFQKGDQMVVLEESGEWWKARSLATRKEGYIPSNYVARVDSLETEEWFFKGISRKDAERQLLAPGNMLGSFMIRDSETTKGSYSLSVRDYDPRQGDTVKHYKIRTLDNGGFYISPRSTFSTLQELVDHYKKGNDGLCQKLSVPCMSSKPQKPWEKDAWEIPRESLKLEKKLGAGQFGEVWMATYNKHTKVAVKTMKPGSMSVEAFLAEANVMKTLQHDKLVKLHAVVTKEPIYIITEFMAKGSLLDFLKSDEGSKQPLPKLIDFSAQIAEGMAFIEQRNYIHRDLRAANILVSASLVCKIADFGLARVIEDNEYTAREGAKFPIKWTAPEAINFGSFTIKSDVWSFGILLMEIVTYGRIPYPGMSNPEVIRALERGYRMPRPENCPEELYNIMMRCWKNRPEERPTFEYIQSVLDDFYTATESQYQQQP

Compound | IC50 (HCK) | mRNA levels of Veminten, FN1 and A-Sma (HK2 cells [1]; [3]) | mRNA levels of fibrosis markers collagen1, Snail, Mmp2 and Slug(Snail2) (HK2 cells [1]; [3]) | remaining activity at 1 µM (HCK; first of two replicate columns) | remaining activity at 1 µM (HCK; [4]) | remaining activity at 50 µM (HCK; first of two replicate columns) | remaining activity at 50 µM (HCK; [4]) | IC50 (HK2 cells [2]) | mRNA levels of fibrosis markers (HK2 cells [1]) | SMAD activity in HK2 cells (SMAD) | cytotoxicity (LDH assay) (LDH cytotoxicity assay)
COc1cc(-c2nnc3n2N=C(c2ccc(Br)cc2)CS3)cc(OC)c1OC [Example 4] | < 50 µM and 30 µM | not affected | affected |  |  |  |  |  |  |  | 
CCOC(=O)c1cnc(NC(=O)c2cc3cc(Cl)ccc3oc2=O)s1 [Example 7] | < 50 µM |  |  | 104% | 114% | 42.8% | 45% | 10 µM | reduced |  | 
CCOC(=O)c1cnc(NC(=O)c2cc3cc(Cl)ccc3[nH]c2=O)s1 [Example 8] | < 50 µM |  |  | 108% | 116% | 41.2% | 43.9% | 0.5 µM | reduced | reduce SMAD activity | 
CCOC(=O)c1cnc(NC(=O)c2ccc(B3OC(C)(C)C(C)(C)O3)cc2)s1 [Example 9] |  |  |  | 110% | 115% | 95% | 86.3% |  |  |  | 
CCOC(=O)c1cnc(NC(C#N)c2ccc(B3OC(C)(C)C(C)(C)O3)cc2)s1 (centres unmarked) [Example 10] |  |  |  | 104% | 99.4% | 89.1% | 96.5% |  |  |  | 
CCOC(=O)c1cnc(NC(C#N)c2ccc(B(O)O)cc2)s1 (centres unmarked) [Example 11] |  |  |  | 93.5% | 103% | 74.5% | 68.5% |  |  |  | 
CCOC(=O)c1cnc(NC(C#N)C2=Cc3cc(Cl)cc(Cl)c3OC2c2ccccc2)s1 (centres unmarked) [Example 12] | < 50 µM |  |  | 108% | 113% | 75.9% | 79.5% | 10 µM |  | reduce SMAD activity | some cytotoxicity at very high dose of 50 uM
CCOC(=O)c1cnc(NC(C#N)c2cc(-c3ccccc3)on2)s1 (centres unmarked) [Example 13] | < 50 µM |  |  | 109% | 113% | 68.4% | 65.5% | 10 µM | reduced |  | 
CCOC(=O)c1cnc(NC(=O)/C=C/c2ccccc2)s1 [Example 14] |  |  |  | 112% | 118% | 93.6% | 94.2% |  |  |  | 
CCOC(=O)c1cnc(NC(=O)C2=Cc3cc(Cl)cc(Cl)c3OC2c2ccccc2)s1 (centres unmarked) [Example 15] | < 50 µM |  |  | 86.6% | 83.4% | 6.63% | 5.97% | 0.5 µM |  | reduce SMAD activity | 
CCOC(=O)c1cnc(NC(=O)c2cc(OC)c(OC)c(OC)c2)s1 [Example 16] |  |  |  | 97.5% | 94% | 89.8% | 85% |  |  |  | 
CCOC(=O)c1cnc(NC(=O)c2cc(-c3ccccc3)on2)s1 [Example 17] |  |  |  | 114% | 116% | 112% | 117% |  |  |  | 
O=C(Nc1ncc(C(=O)O)s1)c1cc(-c2ccccc2)on1 [Example 18] |  |  |  | 107% | 95% | 106% | 113% |  |  |  | 
COc1cc(C(=O)Nc2ncc(C(=O)O)s2)cc(OC)c1OC [Example 19] |  |  |  | 99.2% | 100% | 94.1% | 90.7% |  |  |  | 
CCOC(=O)c1cnc(NC(=O)c2cc(Cl)cc(Cl)c2)s1 [Example 20] |  |  |  | 102% | 110% | 101% | 97.8% |  |  |  | 
O=C(Nc1ncc(C(=O)O)s1)c1cc(Cl)cc(Cl)c1 [Example 21] |  |  |  | 96.2% | 100% | 76.9% | 77.7% |  |  |  | 
